# From ChEMBL document CHEMBL1201862, “PubChem BioAssay data set” (2004)
#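 Growth conditions: 96-well plates. Treatment: test compound, 48 hours, 5 concentrations. Analysis: linear interpolation between bracketing concentrations; unreached endpoints set to highest concentration. GI50 marks 50% less growth.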 Active and inactive are the calls of the source. No stated cut-off is given here; in the data, active = GI50 up to about 1.1 µM and inactive = higher.
# Key:
# Test in all cases: NCI tumour cell line growth inhibition, 48 h
# HCT-116 = system: HCT-116
# NCI-H23 = system: NCI-H23
# UACC-62 = system: UACC-62
# HL-60 = system: HL-60
# RPMI-8226 = system: RPMI-8226
# M14 = system: M14
# HOP-62 = system: HOP-62
# KM-20L2 = system: KM-20L2
# EKVX = system: EKVX
# HT-29 = system: HT-29
# CCRF-CEM = system: CCRF-CEM
# TK-10 = system: TK-10
# 786-0 = system: 786-0
# Hs-578T = system: Hs-578T
# A498 = system: A498
# MDA-N = system: MDA-N
# MDA-MB-231 = system: MDA-MB-231
# T47D = system: T47D
# MDA-MB-435 = system: MDA-MB-435
# DU-145 = system: DU-145
Structure (SMILES),GI50 (HCT-116),GI50 (NCI-H23),GI50 (UACC-62),GI50 (HL-60),GI50 (RPMI-8226),GI50 (M14),GI50 (HOP-62),GI50 (KM-20L2),GI50 (EKVX),GI50 (HT-29),GI50 (CCRF-CEM),GI50 (TK-10),GI50 (786-0),GI50 (Hs-578T),GI50 (A498),GI50 (MDA-N),GI50 (MDA-MB-231),GI50 (T47D),GI50 (MDA-MB-435),GI50 (DU-145)
CCOP1(=O)C=C(C)C(Cl)=C(C)C1 (stereo unspecified),17.2 µM (inactive),22.9 µM (inactive),14.9 µM (inactive),19.1 µM (inactive),18.9 µM (inactive),17.1 µM (inactive),> 100 µM (inactive),32.7 µM (inactive),> 100 µM (inactive),24.5 µM (inactive),17.6 µM (inactive),41.4 µM (inactive),28.3 µM (inactive),,,,,,,
Cc1ccc(SCC(=O)C2=C(O)CCCC2=O)cc1,> 100 µM (inactive),> 100 µM (inactive),> 100 µM (inactive),> 100 µM (inactive),> 100 µM (inactive),> 100 µM (inactive),> 100 µM (inactive),> 100 µM (inactive),> 100 µM (inactive),> 100 µM (inactive),40.6 µM (inactive),> 100 µM (inactive),> 100 µM (inactive),,,,,,,
CCOC(=O)CC(N1CC1)N1CC1,> 10 µM (inactive),> 10 µM (inactive),> 10 µM (inactive),> 10 µM (inactive),> 10 µM (inactive),> 10 µM (inactive),> 10 µM (inactive),,> 10 µM (inactive),> 10 µM (inactive),> 10 µM (inactive),> 10 µM (inactive),> 10 µM (inactive),> 10 µM (inactive),> 10 µM (inactive),> 10 µM (inactive),> 10 µM (inactive),> 10 µM (inactive),> 10 µM (inactive),> 10 µM (inactive)
CN(C)c1ccc(/C=C(\NC(=O)c2ccccc2)c2nn(C)c(=O)o2)cc1,> 100 µM (inactive),> 100 µM (inactive),> 100 µM (inactive),34.6 µM (inactive),32 µM (inactive),46 µM (inactive),18.1 µM (inactive),,> 100 µM (inactive),90.8 µM (inactive),34.7 µM (inactive),> 100 µM (inactive),41.5 µM (inactive),62.1 µM (inactive),> 100 µM (inactive),53.6 µM (inactive),> 100 µM (inactive),> 100 µM (inactive),69 µM (inactive),> 100 µM (inactive)
COc1cc2cccc(N)c2cc1OC,> 100 µM (inactive),> 100 µM (inactive),> 100 µM (inactive),> 100 µM (inactive),> 100 µM (inactive),> 100 µM (inactive),> 100 µM (inactive),,> 100 µM (inactive),> 100 µM (inactive),> 80.5 µM (inactive),> 26.3 µM (inactive),> 100 µM (inactive),> 100 µM (inactive),> 100 µM (inactive),> 100 µM (inactive),> 100 µM (inactive),> 100 µM (inactive),> 100 µM (inactive),> 100 µM (inactive)
C[C@]12CC[C@H]3[C@@H](CC=C4C[C@@H](O)CC[C@@]43C)[C@@H]1C/C(=C\c1ccncc1)[C@@H]2O,18.7 µM (inactive),13.7 µM (inactive),15.4 µM (inactive),10.2 µM (inactive),9.91 µM (inactive),16.5 µM (inactive),29.9 µM (inactive),,14.8 µM (inactive),20.9 µM (inactive),19.5 µM (inactive),39.3 µM (inactive),21.1 µM (inactive),39.3 µM (inactive),13.9 µM (inactive),21.8 µM (inactive),28.8 µM (inactive),12.1 µM (inactive),19.7 µM (inactive),23.1 µM (inactive)
CC1(C=O)C(=O)CCC2(C)C3CC(=O)OC3CCC12 (stereo unspecified),,> 100 µM (inactive),> 100 µM (inactive),> 100 µM (inactive),> 100 µM (inactive),> 100 µM (inactive),> 100 µM (inactive),> 100 µM (inactive),> 100 µM (inactive),> 100 µM (inactive),> 100 µM (inactive),> 100 µM (inactive),> 100 µM (inactive),,,,,,,
Cn1cnc2c(NCc3ccccc3)nc(NCCO)nc21 [OLOMOUCINE],34.8 µM (inactive),59.6 µM (inactive),32.6 µM (inactive),36.9 µM (inactive),53.8 µM (inactive),78.9 µM (inactive),29.3 µM (inactive),,94.4 µM (inactive),71.4 µM (inactive),54.6 µM (inactive),63.8 µM (inactive),60.7 µM (inactive),69.5 µM (inactive),103 µM (inactive),79.4 µM (inactive),92.7 µM (inactive),50.5 µM (inactive),78.7 µM (inactive),34.1 µM (inactive)
c1ccc2c(c1)nc1n2CCNC1,> 100 µM (inactive),> 100 µM (inactive),> 100 µM (inactive),> 100 µM (inactive),> 100 µM (inactive),> 100 µM (inactive),> 100 µM (inactive),,> 100 µM (inactive),> 100 µM (inactive),> 100 µM (inactive),> 100 µM (inactive),> 100 µM (inactive),> 100 µM (inactive),> 100 µM (inactive),> 100 µM (inactive),> 100 µM (inactive),> 100 µM (inactive),> 100 µM (inactive),> 100 µM (inactive)
O=c1oc2ccccc2c(Nc2ccc3c(c2)Oc2ccccc2O3)c1[N+](=O)[O-],31.8 µM (inactive),20.3 µM (inactive),17.7 µM (inactive),> 100 µM (inactive),59.6 µM (inactive),30.3 µM (inactive),34.9 µM (inactive),,21.7 µM (inactive),65.2 µM (inactive),40.3 µM (inactive),21.2 µM (inactive),18.9 µM (inactive),30.1 µM (inactive),27 µM (inactive),49.8 µM (inactive),17.1 µM (inactive),28.7 µM (inactive),54.3 µM (inactive),29.6 µM (inactive)
Cc1cc(C)c2c(=O)n(CN3CCC(O)(c4ccccc4)CC3)sc2n1,39.9 µM (inactive),27.8 µM (inactive),50.9 µM (inactive),20 µM (inactive),23.4 µM (inactive),50 µM (inactive),34.7 µM (inactive),,25 µM (inactive),28.4 µM (inactive),19.4 µM (inactive),11.6 µM (inactive),17.1 µM (inactive),40 µM (inactive),78.3 µM (inactive),19.6 µM (inactive),73.1 µM (inactive),80.9 µM (inactive),20.4 µM (inactive),38.3 µM (inactive)
CSc1ccc(-c2cc(-c3nc4ccccc4[nH]3)nc(N)c2C#N)cc1,17.9 µM (inactive),24.9 µM (inactive),12.3 µM (inactive),20 µM (inactive),21.4 µM (inactive),16.8 µM (inactive),19.1 µM (inactive),,20.1 µM (inactive),21.9 µM (inactive),13.3 µM (inactive),31.6 µM (inactive),26.1 µM (inactive),24.7 µM (inactive),15 µM (inactive),20.7 µM (inactive),17.1 µM (inactive),13.5 µM (inactive),17.7 µM (inactive),17.4 µM (inactive)
CC1(C)CN(c2ccccc2)C(=O)C1OC(=O)[C@@]1(C)C[C@@H]2C=C[C@H]1C2 (stereo partly specified),19.5 µM (inactive),25.2 µM (inactive),18 µM (inactive),20.3 µM (inactive),12.3 µM (inactive),22 µM (inactive),22.4 µM (inactive),,28.4 µM (inactive),12.5 µM (inactive),23.3 µM (inactive),30.7 µM (inactive),21.8 µM (inactive),31 µM (inactive),23.8 µM (inactive),18.7 µM (inactive),24.5 µM (inactive),32.7 µM (inactive),20.2 µM (inactive),87.5 µM (inactive)
N#Cc1c(C#N)c(SSc2c(C#N)c(C#N)c(N)n2-c2cccc3ccccc23)n(-c2cccc3ccccc23)c1N,2.37 µM (inactive),11.2 µM (inactive),18 µM (inactive),2.33 µM (inactive),2.76 µM (inactive),3.08 µM (inactive),21.7 µM (inactive),,5.51 µM (inactive),19.7 µM (inactive),1.97 µM (inactive),5.77 µM (inactive),1.98 µM (inactive),24.6 µM (inactive),30.2 µM (inactive),6.11 µM (inactive),18.4 µM (inactive),1.92 µM (inactive),8.77 µM (inactive),21.9 µM (inactive)
COc1cc(OC)c(/C=C\c2cc(/C=C/c3c(OC)cc(OC)cc3OC)c3ccccc3[n+]2C)c(OC)c1,2.47 µM (inactive),2.76 µM (inactive),2.82 µM (inactive),2 µM (inactive),2 µM (inactive),2.56 µM (inactive),1.07 µM (active),,2.99 µM (inactive),1.83 µM (inactive),1.38 µM (inactive),16 µM (inactive),2.2 µM (inactive),0.863 µM (active),4.59 µM (inactive),2.65 µM (inactive),4.03 µM (inactive),2.37 µM (inactive),2.48 µM (inactive),5.94 µM (inactive)
CC1(C)O[C@H]2[C@H](O)C[C@](O)(CO)C[C@H]2O1,> 100 µM (inactive),> 100 µM (inactive),> 100 µM (inactive),,> 100 µM (inactive),> 100 µM (inactive),,> 100 µM (inactive),> 100 µM (inactive),> 100 µM (inactive),,> 100 µM (inactive),> 100 µM (inactive),,,,,,,
